# From paper PMC11133381, “Necroptosis induced by ruthenium (II) complexes as mitochondrial disruptors” (Cell Death Discovery, 2024)
# pEC50, pIC50: −log10 of the molar value.
# Legend:
# HT29 cells [1] = test: Drug combination study (IC50, combination index, CompuSyn); format: cell-based, human; conditions: combinations at 1:1 ratio
# Experimental: In drug combination studies, cells were incubated with TRZ2 combined with 5-fluorouracil (5-FU), oxaliplatin (OXA), and irinotecan (IRI) chemotherapeutics (kindly provided by Hospital Santa Maria, Lisbon, Portugal) at a ratio of 1:1. The effect of combined treatments was evaluated using the CompuSyn software 1.0 (ComboSyn, Inc. and PD Science, LLC). Briefly, the combination index (CI) is a tool to analyze the interaction between drugs allowing to distinguish between synergistic, additive, and antagonistic effects. CI values are calculated considering the concentration of drugs in combination to produce a specific effect (Fraction affected—Fa) and the concentration of drugs to produce that same effect individually. The final CI value is calculated by the average of CI values at Fa 50, 75, 90, and 95%. CI value < 1 indicates synergism while a CI value > 1 indicates antagonism. Fa-CI plot between the levels of different fractions affected against the CI values was also created using CompuSyn software to interpret the type of interactions between TRZ2 and chemotherapeutic drugs. The data points below the additivity line (CI = 1) indicate synergism.
# HT29 cells [2] = test: TSZ (TNF-α + Z-VAD + BV6)-induced necroptosis, AK release; format: cell-based, human; conditions: Nec-1 30 μM, GSK872 10 μM, 24 h
# Experimental: As positive control for necroptosis induction, HT29 cells were treated with 20 ng/mL recombinant human TNF-α (#300-01A, PeproTech EC Ltd., London, UK), 10 μM Z-Val-Ala-Asp-fluoromethylketon (Z-VAD-FMK or Z-VAD) pan-caspase inhibitor (#ALX-260-020, Enzo Life Sciences, Farmingdale, NY, USA), and 250 nM BV6 Smac mimetic (#B4653, ApexBio, Houston, USA), L929 cells were treated with 10 ng/mL recombinant murine TNF-α (#315-01 A, PeproTech), and HepG2 cells were treated with 10 μM doxorubicin (DOXO) (#D1515, Sigma-Aldrich). […]
# (§1) For evaluation of cell death and viability, cells were plated in 96-well plates at 5 × 10^3 cells/well for next-day treatments. MTS metabolism was evaluated as an indicator of cell viability using CellTiter 96® AQueous non-radioactive cell proliferation assay (Promega, Madison, WI, USA), according to the manufacturer’s instructions. Changes in absorbance were measured at 490 nm using a GloMax®-MultiDetection System (Promega). General cell death was evaluated using the ToxiLight^TM BioAssay Kit (Lonza Walkersville Inc., Walkersville, MD, USA), by determining the quantities of adenylate kinase (AK) released from cells with permeabilized plasma membranes and present in the extracellular medium. The bioluminescent signals were recorded using also the GloMax®-MultiDetection System.
# HT29 cells [3] = test: Antiproliferative MTS assay, HT29 cells, 72 h; format: cell-based, human; conditions: 72 h compound incubation
# Experimental: as §1
# (§2) The primary drug screen was performed using the HCT116 and HT29 cell lines. Cells were seeded in 96-well plates at 5 × 10^3 cells/well and 24 h after, exposed to Ru-TRZ compounds and derivatives at a range of concentrations from 0.012 to 243 μM. Cell proliferation was assessed 72 h later using the MTS assay. As a secondary screen, selected hits were tested using HT29, HepG2, and AML12 wild-type cells seeded in 96-well plates at 5 × 10^3 cells/well. In the following day, cells were exposed to selected compounds at the same range of concentrations for additional 24 h. Cell death was evaluated by the ToxiLight assay. All measurements were performed in duplicate. The half-maximal effective concentration (EC50) and half-maximal inhibitory concentration (IC50) were calculated using the GraphPad Prism Software version 8.0.2 (GraphPad Software, Inc., San Diego, CA, USA) with the log (inhibitor) versus response (variable slope) function.
# HCT116 cells = test: Antiproliferative MTS assay, HCT116 cells, 72 h; format: cell-based, human; conditions: 72 h compound incubation
# Experimental: as §1, §2
# HT29 cells [4] = test: Cytotoxicity by AK release (ToxiLight), HT29 cells, 24 h; format: cell-based, human
# Experimental: as §1
# (§3) The primary drug screen was performed using the HCT116 and HT29 cell lines. […] Cell proliferation was assessed 72 h later using the MTS assay. […] Cell death was evaluated by the ToxiLight assay. […] The half-maximal effective concentration (EC50) and half-maximal inhibitory concentration (IC50) were calculated using the GraphPad Prism Software version 8.0.2 (GraphPad Software, Inc., San Diego, CA, USA) with the log (inhibitor) versus response (variable slope) function.
# HT29 cells [5] = test: Mitochondrial ROS production (MitoSOX Red); format: cell-based, human; conditions: 10 µM, 15 min
# Experimental: Mitochondrial superoxide abundance was quantified by fluorometric quantification. Briefly, HT29 or AML12 cells were plated on a 96-well plate at 5 ×10^3 cells/well and on the next day treated with 10 µM Ru-TRZ, or vehicle control, for additional 15 min. MitoSOX™ Red (Invitrogen, Thermo Fisher Scientific) diluted 1:1000 in HBSS was added (100 μL per well) and incubated at 37 °C in a CO2 incubator for 10 min. Cells were then washed with PBS to remove the excess of dye and fluorescence intensity was measured using a Varioskan™ LUX multimode microplate reader (Thermo Scientific) with excitation and emission wavelengths of 510 and 580 nm, respectively. Fluorescence values were normalized by the cell mass content.
# HT29 cells [6] = test: Mitochondrial transmembrane potential (JC-1); format: cell-based, human; conditions: 2 h
# Experimental: JC-1 (Sigma-Aldrich) is a cationic dye that represents a reliable fluorescent probe for the assessment of mitochondrial transmembrane potential (ΔΨm). […] HT29 or AML12 cells were plated on a 96-well plate at 5 × 10^3 cells/well and on the next day treated with Ru-TRZ compounds (1 and 5 µM) for 2 h. Carbonyl cyanide m-chlorophenyl hydrazone (CCCP), a mitochondrial depolarizing agent, was used as positive control (200 µM; 4 h). Emitted fluorescence was measured at 530 nm and 590 nm using the GloMax®-MultiDetection System (Promega) and the ratio 590/530 emission intensity was calculated.
# [7] = test system: caspase-3/7 activity in HT29 cells; test: Caspase-Glo 3/7 assay; format: cell-based, human; conditions: 10 µM, 24 h, p < 0.001
# Experimental: To determine caspase-3/7 activity, HT29 cells were seeded in 96-well plates at 5 ×10^3 cells/well. Twenty-four hours later, cells were incubated with 10 µM Ru-TRZ, or vehicle control, for additional 24 h. Caspase-3 and -7 activation status was measured using the Caspase-Glo® 3/7 Assay (Promega), according to the manufacturer’s instructions. The luminescent signal was recorded using the GloMax®-MultiDetection System (Promega).
# HepG2 cells = test: Cytotoxicity by AK release (ToxiLight), HepG2 cells, 24 h; format: cell-based, human; conditions: 24 h compound incubation
# Experimental: as §1, §3
# AML12 cells = test: Cytotoxicity by AK release (ToxiLight), AML12 hepatocytes, 24 h; format: cell-based, mouse; conditions: 24 h compound incubation
# Experimental: as §1, §3
# [8] = Homo sapiens, HT-29, 24 h incubation
smiles,measurement,setting,value
"O=c1[nH]cc(F)c(=O)[nH]1 [5-FU, 5-fluorouracil]",pIC50,HT29 cells [1]; [8],4.52
CC(C)S(=O)(=O)c1ccc2nccc(Nc3ccc4scnc4c3)c2c1 [GSK872],Effect on TSZ-induced cell damage (AK release),HT29 cells [2],significantly decreased TSZ-induced AK release
"CCc1c2c(nc3ccc(OC(=O)N4CCC(N5CCCCC5)CC4)cc13)-c1cc3c(c(=O)n1C2)COC(=O)[C@]3(O)CC [IRI, irinotecan]",pIC50,HT29 cells [1]; [8],4.36
"CN1C(=O)C(Cc2c[nH]c3ccccc23)NC1=S (centres unmarked) [Nec-1, Necrostatin-1]",Effect on TSZ-induced cell damage (AK release),HT29 cells [2],rescued
"O=C1[O][Pt]2([NH][C@@H]3CCCC[C@H]3[NH]2)[O]C1=O [OX, oxaliplatin]",pIC50,HT29 cells [1]; 24 h incubation,4.97
CN(N=Nc1ccc(C#N)cc1)C(=O)c1ccccc1.O=S(=O)([O-])C(F)(F)F.[Ru+2].c1cc[cH-]c1.c1ccc(P(CCP(c2ccccc2)c2ccccc2)c2ccccc2)cc1 [TRZ4],IC50,HT29 cells [3],0.23 µM
same,IC50,HCT116 cells,0.55 µM
CN(C)N=Nc1ccc(C#N)cc1.O=S(=O)([O-])C(F)(F)F.c1cc[cH-]c1.c1ccc([P]2(c3ccccc3)CC[P](c3ccccc3)(c3ccccc3)[Ru+2]2)cc1 [TRZ5],IC50,HT29 cells [3],0.31 µM
same,IC50,HCT116 cells,0.22 µM
N#Cc1ccc(NC(=O)CCOCCOCCOCCN)cc1.O=S(=O)([O-])C(F)(F)F.[Ru+2].c1cc[cH-]c1.c1ccc(P(CCP(c2ccccc2)c2ccccc2)c2ccccc2)cc1 [TRZ6],IC50,HT29 cells [3],3.54 µM
same,IC50,HCT116 cells,2.42 µM
CCCC(=O)Nc1ccc(C#N)cc1.O=S(=O)([O-])C(F)(F)F.c1cc[cH-]c1.c1ccc([P]2(c3ccccc3)CC[P](c3ccccc3)(c3ccccc3)[Ru+2]2)cc1 [TRZ7],Cell death (AK release),"HT29 cells [4]; 10 µM, 24 h, partially reverted by Z-VAD, Nec-1 and GSK872",high levels of cell death
same,pEC50,"HT29 cells [4]; AK release, 24 h compound incubation",4.82
same,IC50,HT29 cells [3],0.36 µM
same,Increase of mitochondrial ROS,HT29 cells [5],~3 fold
same,Loss of ΔΨm,"HT29 cells [6]; 1 µM, JC-1, p < 0.05",significant loss of ΔΨm
same,Loss of ΔΨm,"HT29 cells [6]; 5 µM, JC-1, CCCP 200 µM 4 h as positive control",loss of ΔΨm similar to the one induced by CCCP
same,IC50,HCT116 cells,0.55 µM
same,Increase in caspase-3/7 activity,[7],up to 4 fold
same,pEC50,HepG2 cells,4.78
same,pEC50,AML12 cells,4.40
N#Cc1ccc(NC(=O)COCCOCCOCCN=[N+]=[N-])cc1.O=S(=O)([O-])C(F)(F)F.[Ru+2].c1cc[cH-]c1.c1ccc(P(CCP(c2ccccc2)c2ccccc2)c2ccccc2)cc1 [TRZ8],IC50,HT29 cells [3],0.27 µM
same,IC50,HCT116 cells,0.46 µM
